The values below come from article PMC10537280, “Chemo-/Regio-Selective Synthesis of Novel Functionalized Spiro[pyrrolidine-2,3′-oxindoles] under Microwave Irradiation and Their Anticancer Activity” (Molecules, 2023).

Data set [1] relates to human lung A549 cancer cell lines. Put plainly: MTT cytotoxicity assay, lung cancer A549 cells. Type of data set: cell-based. The settings on record: for IC50: Homo sapiens, A549, MTT, 72 h, 0.19–100 μM, means of at least three independent experiments in duplicates, read-out: A549 Cells IC50. On the procedure: (§1) Adenocarcinomic human alveolar basal epithelial (A549) and human hepatoma (HepG2) cancer cell lines, immortalized normal human liver (LO2), human bronchial epithelial (BEAS-2B cells were purchased from [NT], Manassas, VA, USA). […] Invitrogen, Waltham, MA, USA). All cells were incubated at 37 °C in a 5% humidified CO2 incubator). All test compounds were dissolved in DMSO at a final concentration of 50 mM and stored at -20 °C before use. Cytotoxicity was assessed by the MTT (5 mg/mL) assay, as described previously. Briefly, 5 × 10^3 cells per well were seeded in 96-well plates before drug treatments. […] Cells without drug treatment were used as controls. Subsequently, 10 μL of 5 mg/mL MTT solution was added to each well and incubated at 37 °C for 4 h, followed by the addition of 100 μL solubilization buffer (12 mM HCl in a solution of 10% SDS) and overnight incubation. The absorbance, A570 nm, was then determined in each well on the next day. The percentage of cell viability was calculated using the expression: % viability = Atreated/Acontrol × 100, and was given as cytotoxicity (Table 2 and Table 3; […]
For orientation: Tetrazolium assays rely on reduction of a dye to a coloured formazan, in cell work by metabolically active cells.

Data set [2] deals with immortalized liver LO2 normal cell lines. Put plainly: MTT cytotoxicity assay, normal liver LO2 cells. In kind it is cell-based. Particulars: Homo sapiens, L02; MTT, 72 h, 0.19–100 μM; normal liver cells; read-out: LO2 Cells IC50. The protocol:
as §1

In data set [3] the test system is human HepG2 cancer cell lines. Put plainly: MTT cytotoxicity assay, liver cancer HepG2 cells. Type of data set: cell-based. Particulars: for IC50: Homo sapiens, HepG2, 72 h, MTT, 72 h, 0.19–100 μM, means of at least three independent experiments in duplicates, read-out: HepG2 Cells IC50; for S.I. Selectivity index liver (IC50 normal cells/IC50 cancer cells): LO2 IC50 / HepG2 IC50. On the procedure:
as §1

In data set [4] the test system is immortalized lung BEAS-2B normal cell lines. In words: MTT cytotoxicity assay, normal lung BEAS-2B cells. In kind it is cell-based. Particulars: Homo sapiens, MTT, 72 h, 0.19–100 μM, normal lung cells, read-out: BEAS-2B Cells IC50. On the procedure:
as §1

The subject of data set [5] is human HepG2 cancer cell lines. The settings on record: paclitaxel reference value; ref [82]; read-out: HepG2 Cells IC50; cited from earlier work.
The test system of data set [6] is immortalized lung BEAS-2B normal cell lines. More on the design: method as in PMID 24063429. Particulars: paclitaxel reference value; ref [80]; read-out: BEAS-2B Cells IC50; cited from earlier work.
Data set [7] relates to human lung A549 cancer cell lines. Also noted: method as in PMID 24063429. The settings on record: paclitaxel reference value; ref [80]; read-out: A549 Cells IC50; cited from earlier work.
Data set [8] has as its system immortalized liver LO2 normal cell lines. Particulars: paclitaxel reference value; ref [82]; read-out: LO2 Cells IC50; cited from earlier work.

SMILES strings stand for the structures. Like-named read-outs stand apart in the source and are kept apart here. A value given as a limit tells only on which side of the number the result lay.

In turn, `COc1ccc(C2C([N+](=O)[O-])C3CCCN3C23C(=O)Nc2ccc(Br)cc23)cc1OC` (stereo not drawn) [Compound 4w, 5-bromo-2′-(3,4-dimethoxyphenyl)-1′-nitro-1′,2′,5′,6′,7′,7a′-hexahydrospiro [indoline-3,3′-pyrrolizin]-2-one] returned a melting point of 195 to 197 °C. Also, the IC50 in [1] is over 100 µM. In addition, in data set [2], the IC50 is over 100 µM. The IC50 in data set [3] was over 100 µM. In data set [4], the IC50 is over 100 µM.

As to `COc1cc(C2C([N+](=O)[O-])C3CCCN3C23C(=O)Nc2ccccc23)ccc1OCc1ccccc1` (stereo not drawn) [Compound 4n, 2′-(4-(benzyloxy)-3-methoxyphenyl)-1′-nitro-1′,2′,5′,6′,7′,7a′-hexahydrospiro[indoline-3,3′-pyrrolizin]-2-one], the melting point was in the range of 66 to 68 °C. Besides, in [1], the concentration for half-maximal inhibition (IC50) was over 100 µM. In [2], the IC50 was over 100 µM. Further, the IC50 in data set [3] was over 100 µM. Further, the IC50 in [4] was over 100 µM.

Turning to `COc1ccc(C2C([N+](=O)[O-])C(Cc3ccccc3)NC23C(=O)Nc2ccc(Br)cc23)cc1OCc1ccccc1` (stereo not drawn) [Compound 4g, 5′-benzyl-3′-(3-(benzyloxy)-4-methoxyphenyl)-5-bromo-4′-nitrospiro[indoline-3,2′-pyrrolidin]-2-one], the melting point fell in the range of 155 to 157 °C. The IC50 in data set [1] is over 100 µM. The half-maximal inhibitory concentration (IC50) in data set [2] is over 100 µM. Further, in [3], the IC50 was over 100 µM. Besides, the IC50 in data set [4] is over 100 µM.

The compound `COc1ccc(OC)c(C2C([N+](=O)[O-])C(C)NC23C(=O)Nc2ccc(Br)cc23)c1` (stereo not drawn) [Compound 4e, 5-bromo-3′-(2,5-dimethoxyphenyl)-5′-methyl-4′-nitrospiro[indoline-3,2′-pyrrolidin]-2-one] displayed a melting point of 108 to 110 °C. Moreover, the IC50 in data set [1] was determined as 85.6 µM. Further, the IC50 in [2] came to 81.3 µM. Further, in data set [3], the IC50 was over 100 µM and the “S.I. Selectivity index liver (IC50 normal cells/IC50 cancer cells)” value (“S.I. Selectivity index liver” for short) is under 0.81. Moreover, the concentration for half-maximal inhibition (IC50) in data set [4] was over 100 µM.

`COc1cc(C2C([N+](=O)[O-])C(CC(C)C)NC23C(=O)Nc2ccccc23)ccc1OCc1ccccc1` (stereo not drawn) [Compound 4k, 3′-(4-(benzyloxy)-3-methoxyphenyl)-5′-isobutyl-4′-nitrospiro[indoline-3,2′-pyrrolidin]-2-one]: the melting point is 68 to 70 °C. For the same compound, the IC50 in data set [1] was over 100 µM. For the same compound, the IC50 in [2] worked out at 33.3 µM. In addition, in data set [3], the IC50 was determined as 67.8 µM and the “S.I. Selectivity index liver” value is 0.49. The IC50 in data set [4] is over 100 µM.

`COc1cc(C2C([N+](=O)[O-])C(C)NC23C(=O)Nc2ccccc23)ccc1OCc1ccccc1` (stereo not drawn) [Compound 4l, 3′-(4-(benzyloxy)-3-methoxyphenyl)-5′-methyl-4′-nitrospiro[indoline-3,2′-pyrrolidin]-2-one] returned a melting point of 168 to 170 °C. In addition, the IC50 in [1] was over 100 µM. The IC50 in data set [2] was over 100 µM. Further, the IC50 in [3] is over 100 µM. Also, the IC50 in data set [4] is over 100 µM.

In the case of `CC(=O)O[C@H]1C(=O)[C@@]2(C)[C@H]([C@H](OC(=O)c3ccccc3)[C@]3(O)C[C@H](OC(=O)[C@H](O)[C@@H](NC(=O)c4ccccc4)c4ccccc4)C(C)=C1C3(C)C)[C@]1(OC(C)=O)CO[C@@H]1C[C@@H]2O` [Paclitaxel], the IC50 in [5] was 0.19 ± 0.4 µM; in [6] it was 0.1 µM; in data set [7], 0.003 µM; in [8], under 0.1 µM.

With `COc1cccc(C2C([N+](=O)[O-])C3CCCN3C23C(=O)Nc2ccc(Br)cc23)c1` (stereo not drawn) [Compound 4t, 5-bromo-2′-(3-methoxyphenyl)-1′-nitro-1′,2′,5′,6′,7′,7a′-hexahydrospiro[indoline-3,3′-pyrrolizin]-2-one], the melting point was in the range of 145 to 147 °C. Moreover, in data set [1] (BEAS-2B IC50 / A549 IC50), the “S.I. Selectivity index lung (IC50 normal cells/IC50 cancer cells)” value is 1.50. The IC50 in data set [1] was determined as 45.2 µM. In [2], the IC50 is 45.5 µM. Further, in data set [3], the IC50 came to 46.1 µM and the “S.I. Selectivity index liver” value stood at 0.99. In [4], the 50% inhibitory concentration (IC50) was 67.7 µM.

As to `COc1ccc(OC)c(C2C([N+](=O)[O-])C3CCCN3C23C(=O)Nc2ccc(Br)cc23)c1` (stereo not drawn) [Compound 4u, 5-bromo-2′-(2,5-dimethoxyphenyl)-1′-nitro-1′,2′,5′,6′,7′,7a′-hexahydrospiro[indoline-3,3′-pyrrolizin]-2-one], the melting point lay within 190 to 192 °C. The half-maximal inhibitory concentration (IC50) in data set [1] is over 100 µM. The IC50 in data set [2] is over 100 µM. In addition, the IC50 in [3] is over 100 µM. Besides, the IC50 in data set [4] is over 100 µM.

As a reminder, the IC50 is the concentration needed to halve the response being measured. Usually melting point stands for the temperature, or range, at which the solid turns liquid.
